{
  "source": "paper PMC7298650",
  "about": "(iScience, 2020)",
  "key": {"insulin receptor [1]": {"target": "T1, insulin receptor (Homo sapiens, UniProt P06213)", "T1 sequence (P06213 28-758)": "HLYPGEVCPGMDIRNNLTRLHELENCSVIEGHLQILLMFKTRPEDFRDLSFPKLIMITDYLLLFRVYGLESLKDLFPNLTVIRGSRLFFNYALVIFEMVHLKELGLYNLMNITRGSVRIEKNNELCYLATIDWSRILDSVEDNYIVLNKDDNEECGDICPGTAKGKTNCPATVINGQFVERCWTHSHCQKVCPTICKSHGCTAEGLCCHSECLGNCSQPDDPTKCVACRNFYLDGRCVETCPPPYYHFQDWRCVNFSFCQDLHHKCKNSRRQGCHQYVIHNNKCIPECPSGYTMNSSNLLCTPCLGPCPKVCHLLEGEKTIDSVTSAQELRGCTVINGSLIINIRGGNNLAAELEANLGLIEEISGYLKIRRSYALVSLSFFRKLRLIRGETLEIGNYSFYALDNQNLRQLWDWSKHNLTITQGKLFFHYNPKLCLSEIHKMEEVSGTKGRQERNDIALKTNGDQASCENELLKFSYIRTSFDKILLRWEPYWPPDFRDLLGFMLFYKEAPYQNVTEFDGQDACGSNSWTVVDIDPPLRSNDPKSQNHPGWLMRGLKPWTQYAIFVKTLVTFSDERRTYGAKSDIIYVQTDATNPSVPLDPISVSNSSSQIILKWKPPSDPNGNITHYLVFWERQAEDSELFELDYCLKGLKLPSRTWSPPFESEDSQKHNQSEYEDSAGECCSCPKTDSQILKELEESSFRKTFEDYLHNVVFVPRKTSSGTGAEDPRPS", "T1 sequence (P06213 763-956)": "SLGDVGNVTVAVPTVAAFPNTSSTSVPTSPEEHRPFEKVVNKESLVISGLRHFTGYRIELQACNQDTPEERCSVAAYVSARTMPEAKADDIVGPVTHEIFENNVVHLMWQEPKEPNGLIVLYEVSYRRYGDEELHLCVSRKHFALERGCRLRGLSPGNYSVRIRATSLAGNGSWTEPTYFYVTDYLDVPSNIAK", "assay": "surface plasmon resonance", "assay_type": "binding"}, "insulin receptor [2]": {"target": "T1, insulin receptor", "assay": "surface plasmon resonance", "assay_type": "binding", "remark": "listed apart in the source"}},
  "note": "pKd: −log10 of the molar value. Where two headings read alike, the source gives them in different places.",
  "data": [
    {"smiles": "CN(C)C(=N)N=C(N)N", "note": "[Metformin]", "values": [
      {"measurement": "pKd", "setting": "insulin receptor [1]", "value": "~4.08"}
    ]},
    {"smiles": "O=c1c2ccccc2nc2n1CCc1c-2[nH]c2ccccc12", "note": "[Rut-0, Rutaecarpine]", "values": [
      {"measurement": "pKd", "setting": "insulin receptor [2]", "value": "~4.85"}
    ]}
  ]
}
